One may read the IC50 as the concentration that inhibits the measured activity by half. A higher IC50 goes with weaker potency in that assay.

Assay type in all cases: binding
In assay [1] the target is T1, TjapOBP2 (Trissolcus japonicus, UniProt A0A7G6J4J8).
T1 construct: gene OBP2; mature, signal peptide removed; E. coli BL21; His-tag cleaved; ~15 kDa on SDS-PAGE; classical OBP; by primers starts KRPDFIDDDM and ends QCIINNCPEMWFIV
T1 sequence (A0A7G6J4J8 23-142): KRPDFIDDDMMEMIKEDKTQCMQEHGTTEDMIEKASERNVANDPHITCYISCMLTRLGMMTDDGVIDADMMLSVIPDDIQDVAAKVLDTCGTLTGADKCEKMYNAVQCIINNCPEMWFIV
As to the kind of experiment: fluorescence titration, Scatchard. As to conditions: 50 mM Tris-HCl pH 7.4; excitation 337 nm; fluorescent probe.

The target of assay [2] is T2, TjapOBP3 (Trissolcus japonicus, UniProt A0A7G6J4J9).
T2 construct: gene OBP3; mature, signal peptide removed; E. coli BL21; His-tag cleaved; ~15 kDa on SDS-PAGE; classical OBP; by primers starts KLSVPQLK and ends CWYHKNPEMYIFP
T2 sequence (A0A7G6J4J9 22-142): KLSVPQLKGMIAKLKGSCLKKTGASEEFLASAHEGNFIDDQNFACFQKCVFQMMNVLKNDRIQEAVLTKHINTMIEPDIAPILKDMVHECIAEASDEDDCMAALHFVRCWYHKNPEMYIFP
As to the kind of experiment: fluorescence titration, Scatchard. As to conditions: 50 mM Tris-HCl pH 7.4; excitation 337 nm; fluorescent probe.

Assay [3] concerns the target T2, TjapOBP3. The assay can be described thus: competitive fluorescence displacement of 1-NPN. As to conditions: 50 mM Tris-HCl pH 7.4; excitation 337 nm; competitive with 1-NPN.
Assay [4] concerns the target T1, TjapOBP2. As to the kind of experiment: competitive fluorescence displacement of 1-NPN.

Take `c1ccc(Nc2cccc3ccccc23)cc1` [1-NPN]: the K1-NPN entry in assay [1] and in assay [2] was “The fluorescent probe 1-NPN was used to bind the selected OBPs” in each case.

Regarding `CCCCCCC/C=C/C=O` [(E)-2-decenal], the “competitive fluorescence displacement of 1-NPN” value in assay [3] was “TjapOBP1 and TjapOBP3 had a weak ability to bind (E)-2-decenal”. The IC50 in assay [4] turned out to be 7.92 ± 1.03 µM.

For the origin of these results see article PMC7494974, “Olfactory Reception of Host Alarm Pheromone Component by the Odorant-Binding Proteins in the Samurai Wasp, Trissolcus japonicus (Hymenoptera: Scelionidae)” (Frontiers in Physiology, 2020).
